Legend:
SCD1 = biological target: T1, SCD1 (Homo sapiens, UniProt O00767); test: Growth inhibition of humanized yeast strain expressing SCD1 as sole desaturase; format: cell-based
T1 construct: host or cells: S. cerevisiae ole1Δ strain (W303 pdr1Δ pdr3Δ background), plasmid pRS316 with TDH3 promoter and CYC1 terminator
T1 sequence (O00767 1-359): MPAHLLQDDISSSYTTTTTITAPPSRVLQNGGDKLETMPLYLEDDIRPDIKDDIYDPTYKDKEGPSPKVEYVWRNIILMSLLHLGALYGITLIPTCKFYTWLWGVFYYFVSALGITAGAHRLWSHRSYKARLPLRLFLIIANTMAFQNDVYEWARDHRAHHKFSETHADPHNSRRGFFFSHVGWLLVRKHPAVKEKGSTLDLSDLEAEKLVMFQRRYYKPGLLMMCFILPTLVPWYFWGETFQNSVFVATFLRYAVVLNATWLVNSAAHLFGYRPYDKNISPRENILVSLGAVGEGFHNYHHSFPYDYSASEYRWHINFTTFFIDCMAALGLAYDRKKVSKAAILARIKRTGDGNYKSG
In short: (§1)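 ole1Δ yeast (W303 pdr1Δ pdr3Δ background) carrying plasmid-borne Ole1, SCD1 or SCD5, grown in uracil-free media; cultures pre-grown in raffinose, seeded at 2× density 0.02 in galactose media with compound. Growth read as OD600 after 24 h at 30° C. for Ole1, 40 h for SCD1/SCD5.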

SCD5 = biological target: T2, SCD5 (Homo sapiens, UniProt Q86SK9); test: Growth inhibition of humanized yeast strain expressing SCD5 as sole desaturase; format: cell-based
T2 construct: host or cells: S. cerevisiae ole1Δ strain (W303 pdr1Δ pdr3Δ background), plasmid pRS316 with TDH3 promoter and CYC1 terminator
T2 sequence (Q86SK9 1-330): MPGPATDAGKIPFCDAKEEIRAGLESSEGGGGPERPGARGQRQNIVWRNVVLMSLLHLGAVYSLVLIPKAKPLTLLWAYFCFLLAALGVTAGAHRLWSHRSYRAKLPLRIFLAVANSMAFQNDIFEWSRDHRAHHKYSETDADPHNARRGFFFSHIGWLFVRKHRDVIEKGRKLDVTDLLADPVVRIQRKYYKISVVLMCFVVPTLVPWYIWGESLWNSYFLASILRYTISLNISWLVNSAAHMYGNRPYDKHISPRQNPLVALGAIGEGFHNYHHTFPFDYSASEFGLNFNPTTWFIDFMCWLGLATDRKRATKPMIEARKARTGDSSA
In short: as §1

[1] = humanized yeast strain expressing SCD1
[2] = humanized yeast strain expressing SCD5
[3] = growth inhibition of humanized yeast strain expressing human SCD1
[4] = growth inhibition of humanized yeast strain expressing human SCD5

Row | Structure (SMILES) | IC50 (SCD1; humanized yeast strain, 40 h) | IC50 (SCD5; humanized yeast strain, 40 h) | IC50 (SCD1; [3]) | IC50 (SCD5; [4]) | further results
1 | CC(C)(C)OC(=O)N1CC(c2noc(-c3ccc4cnn(C5COC5)c4c3)n2)C1 [Compound 926] | > 45 µM | > 45 µM | – | – | –
2 | CC(C)n1ncc2ccc(N3CC4(CCN(C(=O)OC(C)(C)C)CC4)OC3=O)cc21 [Compound 515] | – | – | – | – | IC50 (SCD1; [1]): 16.5 µM; IC50 (SCD5; [2]): > 45 µM
3 | COC(=O)N1CCCC(c2noc(-c3ccc4cnn(C5COC5)c4c3)n2)CC1 (stereo not shown) [Compound 873] | > 45 µM | 41.3 µM | – | – | –
4 | CC(C)n1ncc2ccc(-c3noc(N4CCN(C(=O)CC5CC5)CC4)n3)cc21 [Compound 869] | > 45 µM | 1.64 µM | – | – | –
5 | COC(=O)N1CCC(c2nc(-c3ccnc(NC(C)C)c3)no2)CC1 [Compound 815] | > 45 µM | > 45 µM | – | – | –
6 | CC(C)(C)OC(=O)N1CCC(c2noc(-c3cccc(N4CCOCC4)c3)n2)CC1 [Compound 979] | > 45 µM | 0.168 µM | – | – | –
7 | CC(C)(C)OC(=O)N1CCC(c2nc(-c3ccc4c(Br)ncn4c3)no2)CC1 [Compound 872] | > 45 µM | 8.06 µM | – | – | –
8 | CC(C)(C)OC(=O)N1CCC(c2noc(-c3ccc4cnn(C5CCOC5)c4c3)n2)CC1 (stereo not shown) [Compound 817] | 4.13 µM | 0.01 µM | – | – | –
9 | CC(C)(C)OC(=O)N1CCC(c2noc(-c3cc4c(cnn4C4COC4)cc3F)n2)CC1 [Compound 931] | > 45 µM | > 45 µM | – | – | –
10 | Cc1nn(C)c2cc(-c3noc(C4CCN(c5nc6ccccc6o5)CC4)n3)ccc12 [Compound 514] | – | – | – | – | IC50 (SCD1; [1]): > 45 µM; IC50 (SCD5; [2]): > 45 µM
11 | CC(C)(C)OC(=O)N1CCN(c2noc(-c3ccnc(OC4COC4)c3)n2)CC1 [Compound 977] | > 45 µM | 5.94 µM | – | – | –
12 | CC(C)C(=O)N1CCC(c2noc(-c3cccc(N4CCOCC4)c3F)n2)CC1 [Compound 1160] | > 45 µM | > 45 µM | – | – | –
13 | CCC1(C(=O)N2CCC(c3noc(-c4ccc5cnn(C6COC6)c5c4)n3)CC2)CC1 [Compound 964] | 0.31 µM | 0.03 µM | – | – | –
14 | CC(C)(C)OC(=O)N1CCC(c2noc(-c3ccc(F)c(N4CCOCC4)c3)n2)CC1 [Compound 1149] | > 45 µM | 0.01 µM | – | – | –
15 | CC(C)(C)OC(=O)N1CCC(c2nc(-c3ccc4cnn([C@@H]5CCOC5)c4c3)no2)CC1 [Compound 792] | 8.83 µM | 0.01 µM | – | – | –
16 | CC(C)(C)OC(=O)N1CCC(N2CCN(c3ccc4cnn(C5COC5)c4c3)C2=O)CC1 [Compound 810] | > 45 µM | 2.5 µM | – | – | –
17 | CC(C)(C)OC(=O)N1CCC(c2noc(N3CCc4nn(C5COC5)cc4C3)n2)CC1 [Compound 1172] | ≥ 45 µM | 9.89 µM | – | – | –
18 | CCC(=O)N1CCC(c2noc(-c3ccc4cnn(C5CCOC5)c4c3)n2)CC1 (stereo not shown) [Compound 975] | > 45 µM | 0.01 µM | – | – | –
19 | CC(C)n1ncc2ccc(-c3ccc(C4CCN(C(=O)OC(C)(C)C)C4)nn3)cc21 (stereo not shown) [Compound 733] | – | – | > 45 µM | 2.73 µM | –

Row | Structure (SMILES) | IC50 (SCD1; humanized yeast strain, 40 h) | IC50 (SCD5; humanized yeast strain, 40 h) | IC50 (SCD1; [3]) | IC50 (SCD5; [4]) | further results
20 | CC1(OC(=O)N2CCC(c3nnc(-c4ccc5cnn(C6COC6)c5c4)o3)CC2)CCC1 [Compound 981] | > 45 µM | 0.045 µM | – | – | –
21 | COC(=O)N1CCN(c2nc(-c3ccc4cnn(C5COC5)c4c3)no2)CC1 [Compound 636] | – | – | > 45 µM | 1.8 µM | –
22 | CC(C)(C)OC(=O)N1CCC(c2nc(N3CC4(COC4)C3)no2)CC1 [Compound 806] | > 45 µM | > 45 µM | – | – | –
23 | Cc1nn(C)c2cc(-c3noc(C4CCN(C(=O)CNC(=O)c5cccc(C#N)c5)CC4(F)F)n3)ccc12 (stereo not shown) [Compound 604] | – | – | – | – | IC50 (SCD1; [1]): > 45 µM; IC50 (SCD5; [2]): 6.12 µM
24 | CC(C)n1ncc2ccc(N3CC4(CCN(C(=O)CC(C)(C)C)CC4)C3)cc21 [Compound 632] | – | – | > 45 µM | > 45 µM | –
25 | CC(CCO)n1ncc2ccc(-c3noc(C4CCN(C(=O)OC(C)(C)C)CC4)n3)cc21 (stereo not shown) [Compound 641] | – | – | > 45 µM | 6.72 µM | –
26 | Cc1nn(C)c2cc(-c3nc(C4CCN(C(=O)OC5CC5)CC4)no3)ccc12 [Compound 911] | > 45 µM | > 45 µM | – | – | –
27 | COC(=O)N1CCC(c2noc(-c3ccc4cnn([C@H]5C[C@@H](O)C5)c4c3)n2)CC1 [Compound 945] | > 45 µM | 5.29 µM | – | – | –
28 | CC(C)(C)OC(=O)N1CCC(c2noc(-c3cccc([C@H]4CCOC4)c3)n2)CC1 [Compound 789] | > 45 µM | 0.01 µM | – | – | –
29 | O=C(C1CC1)N1CCN(c2noc(-c3ccc4cnn(C5COC5)c4c3)n2)CC1 [Compound 844] | > 45 µM | 0.015 µM | – | – | –
30 | CC(C)n1ncc2ccc(-c3noc(C4CCN(C(=O)C5CC(=O)N(C)C5(C)C)CC4)n3)cc21 (stereo not shown) [Compound 616] | – | – | > 45 µM | > 45 µM | –
31 | O=C(CC1CC1)N1CCN(c2nc(-c3ccc4cnn(C5COC5)c4c3)no2)CC1 [Compound 659] | – | – | > 45 µM | 4.2 µM | –
32 | CC(C)(C)OC(=O)N1CCC(c2nc(-c3ccc4cnn(C5CN(C(=O)OC(C)(C)C)C5)c4c3)no2)CC1 [Compound 652] | – | – | > 45 µM | > 45 µM | –
33 | Cc1nn(C)c2cc(-c3noc(C4CCN(c5nc6ccccc6o5)CC4)n3)ccc12 [Compound 669] | – | – | > 45 µM | > 45 µM | –
34 | CN(C)CC(=O)N1CCN(c2nc(-c3ccc4cnn(C5COC5)c4c3)no2)CC1 [Compound 737] | – | – | > 45 µM | > 45 µM | –
35 | COC(=O)N1CCN(c2nc(-c3ccc4cnn(C5CNC5)c4c3)no2)CC1 [Compound 913] | > 45 µM | 13.8 µM | – | – | –
36 | CC1(OC(=O)N2CCC(c3noc(-c4ccnc(N5CCC(F)(F)C5)c4)n3)CC2)CC1 [Compound 1171] | 1.14 µM | 0.0311 µM | – | – | –
37 | Cc1nn(C)c2cc(-c3noc(C4CCN(C(=O)[C@H]5CC(=O)N(c6cccc(C#N)c6)C5)CC4(F)F)n3)ccc12 (stereo partly shown) [Compound 631] | – | – | > 45 µM | > 45 µM | –
38 | CC(C)(C)OC(=O)N[C@H]1CC[C@@H](c2nc(-c3ccc4cnn(C5COC5)c4c3)no2)CC1 [Compound 683] | – | – | > 45 µM | 10.1 µM | –

Row | Structure (SMILES) | IC50 (SCD1; humanized yeast strain, 40 h) | IC50 (SCD5; humanized yeast strain, 40 h) | IC50 (SCD1; [3]) | IC50 (SCD5; [4]) | further results
39 | CC(C)(C)OC(=O)N1CCC(c2nc(-c3ccc4cnn(CC5CCNC5=O)c4c3)no2)CC1 (stereo not shown) [Compound 645] | – | – | 17.9 µM | 4.47 µM | –
40 | O=C(N1CCC(c2noc(-c3cnc4cnn(C5COC5)c4c3)n2)CC1)C1(F)CC1 [Compound 1140] | > 45 µM | 0.0613 µM | – | – | –
41 | CC(C)(C)OC(=O)N1CCN(c2nc(-c3ccc4cn(C5COC5)nc4c3)no2)CC1 [Compound 701] | – | – | > 45 µM | > 45 µM | –
42 | CC(C)(C)OC(=O)N1CCC(c2nc(-c3ccc4c(c3)N(C3COC3)C(=O)CC4)no2)CC1 [Compound 662] | – | – | > 45 µM | > 45 µM | –
43 | CC1(CC(=O)N2CCN(c3noc(-c4ccc5cnn(C6COC6)c5c4)n3)CC2)CC1 [Compound 842] | > 45 µM | 0.01 µM | – | – | –
44 | COC(=O)N1CCC(c2nc(-c3ccc4cnc(C5COC5)n4c3)no2)CC1 [Compound 900] | > 45 µM | 13.1 µM | – | – | –
45 | COC1(C2CCN(c3nc(-c4ccc5cnn(C(C)C)c5c4)no3)CC2)COC1 [Compound 830] | > 45 µM | > 45 µM | – | – | –
46 | CC(C)(C)CC(=O)N1CCC(c2nc(-c3ccc4cnn(C(=O)C5COC5)c4c3)no2)CC1 [Compound 694] | – | – | > 45 µM | > 45 µM | –
47 | CC1(CC(=O)N2CCN(c3nnc(-c4ccc5cnn(C6COC6)c5c4)o3)CC2)CC1 [Compound 995] | > 45 µM | > 45 µM | – | – | –
48 | CC(C)n1ncc2ccc(-c3noc(C4(F)CCN(C(=O)OC5CC5)CC4)n3)cc21 [Compound 624] | – | – | > 45 µM | 0.222 µM | –
49 | CC(CF)n1ncc2ccc(-c3noc(C4CCN(C(=O)CC(C)(C)C)CC4)n3)cc21 (stereo not shown) [Compound 583] | – | – | – | – | IC50 (SCD1; [1]): > 45 µM; IC50 (SCD5; [2]): 0.989 µM
50 | CCC(=O)N1CCCN(c2noc(-c3ccc4cnn(C5COC5)c4c3)n2)CC1 [Compound 962] | > 45 µM | 0.01 µM | – | – | –
51 | CC(C)(C)OC(=O)N1CCC(c2ccc(-c3ccc4cnn(C5COC5)c4c3)cc2)CC1 [Compound 967] | > 45 µM | 1.52 µM | – | – | –
52 | CC(C)(C)OC(=O)N1CCC(c2noc(-c3ccc(=O)n(C4CCOC4)c3)n2)CC1 (stereo not shown) [Compound 1114] | > 45 µM | 0.116 µM | – | – | –
53 | CC(C)(C)OC(=O)N1CCC(c2noc(-c3ccc4cnn(C5CNC5)c4c3)n2)CC1 [Compound 918] | > 45 µM | 0.8 µM | – | – | –
54 | O=C(C1CCC1)N1CCC(c2nc(-c3ccc4cnn(C5COC5)c4c3)no2)CC1 [Compound 1044] | > 45 µM | 0.593 µM | – | – | –
55 | O=C(N1CCC(c2noc(-c3ccnc(C4CCOC4)c3)n2)CC1)C1(C(F)(F)F)CCC1 (stereo not shown) [Compound 1176] | > 45 µM | 0.14 µM | – | – | –
56 | CC(C)(C)OC(=O)N1CCC(c2nc(-c3ccc4cnn(C5CNC5)c4c3)no2)CC1 [Compound 728] | – | – | > 45 µM | 0.126 µM | –

From US11873298B2, “Compounds and uses thereof” (JANSSEN PHARMACEUTICA NV, priority 2017, dated 2024)
